Values of other authors, collected in patent US20180318450A1, “ENHANCED SURGICAL VISUALIZATION OF VIABLE TISSUE WITH SELECTIVE DYE” (priority 2017, published 2018).
Starred links: 1 amine or outer side, 2 acyl side, 3 side chain; linkers in the order of their positions; H or OH if unused. Positions of bridges follow the written chain, without caps; N, C: chain ends. Non-standard residues stand in square brackets, D forms with d. Residues, ends and D or L forms follow the SMILES beside them. Trp(2-yl) = O=C([C@H](Cc1c([*:3])[nH]c2ccccc12)N[*:1])[*:2]; Leu(4R-OH,5-OH) = C[C@](O)(CO)C[C@H](N)C(=O)O; cisHyp = O=C(O)[C@@H]1C[C@H](O)CN1

Test system: tumor proliferation
Conditions: toxin attached to C-terminus of ph low insertion peptide, cells in acidic environment

For `C[C@@H]1NC(=O)[C@H](C[C@@](C)(O)CO)NC(=O)[C@@H]2Cc3c([nH]c4ccccc34)SC[C@H](NC(=O)[C@@H]([C@H](C)O)NC1=O)C(=O)N1C[C@@H](O)C[C@H]1C(=O)N[C@@H](C)C(=O)N2` [phalloidin] (cyclo(A[dT]C[cisHyp]A[Trp(2-yl)][Leu(4R-OH,5-OH)]); thioether 3-6), the tumor proliferation is given as “prohibited tumor proliferation”.
